Test results from US20120245176A1, “NOVEL […] WITH S[…] AS BROAD-[…] INFLUENZA ANTIVIRALS” (priority 2010, published 2012).
Where two headings read alike, the source gives them in different places.

What was measured:
[1] = Human Liver Microsomal Stability; settings: human liver microsomes
[2] = Mouse Liver Microsomal Stability; settings: mouse liver microsomes
A/H3N2 Brisbane = assay: Antiviral assay in MDCK cells, viral neuraminidase (MUNANA) readout, A/H3N2 Brisbane; assay type: cell-based, influenza A; settings: viral NA activity
A/H5N1/Duck_MN = assay: microbe, parasite or virus in culture; assay type: cell-based, influenza virus; settings: read-out: A/H5N1/Duck_MN EC50
A/H5N1/Duck_PA = assay: microbe, parasite or virus in culture; assay type: cell-based, influenza virus; settings: read-out: A/H5N1/Duck_PA EC50
A/H1N1/WSN = assay: Antiviral assay in MDCK cells, viral neuraminidase (MUNANA) readout, A/H1N1/WSN; assay type: cell-based, influenza A; settings: MOI 0.001, 48 hrs post infection, viral NA activity
A/H5N1/Gull_PA = assay: microbe, parasite or virus in culture; assay type: cell-based, influenza virus; settings: read-out: A/H5N1/Gull_PA EC50
A/H1N1/Solomon Islands = assay: Antiviral assay in MDCK cells, viral neuraminidase (MUNANA) readout, A/H1N1/Solomon Islands; assay type: cell-based, influenza A; settings: viral NA activity
[3] = MOI 0.001, 48 hrs post infection
[4] = Influenza A virus, H3N2, MOI 0.001, 48 hrs post infection
[5] = Influenza A virus, H5N1, MDCK, 48 h
[6] = Influenza A virus, H1N1, MOI 0.001, 48 hrs post infection

Row | SMILES | Human Liver Microsomal Stability (% Remaining after 10 minutes) [1] [%] | Mouse Liver Microsomal Stability (% Remaining after 10 minutes) [2] [%] | EC50 (A/H3N2 Brisbane; [3]) [µM] | EC50 (A/H5N1/Duck_MN) [µM] | EC50 (A/H5N1/Duck_PA) [µM] | EC50 (A/H1N1/WSN) [µM] | EC50 (A/H5N1/Gull_PA) [µM] | EC50 (A/H1N1/Solomon Islands; [3]) [µM] | also measured
1 | Cc1onc(-c2ccccc2Cl)c1C(=O)N1CCN(c2ccc([N+](=O)[O-])cc2F)CC1 [Example 4] | 72 | 86 |  |  |  |  |  |  | 
2 | COc1ccccc1-c1noc(C)c1C(=O)N1CCN(c2ccc([N+](=O)[O-])cc2Cl)CC1 [Example 18] |  |  | < 10 | < 1 | < 1 | < 0.1 | < 0.1 | < 1 | 
3 | Cc1onc(-c2ccc(F)cc2)c1C(=O)N1CCN(c2ccc([N+](=O)[O-])cc2Cl)CC1 [Example 27] | 66 | 86 |  |  |  |  |  |  | 
4 | Cc1onc(-c2cccc(Cl)c2)c1C(=O)N1CCN(c2ccc([N+](=O)[O-])cc2Cl)CC1 [Example 28] | 94 | 85 |  |  |  |  |  |  | 
5 | COc1cc(F)ccc1-c1noc(C)c1C(=O)N1CCN(c2ccc([N+](=O)[O-])cc2Cl)CC1 [Example 29] | 68 | 28 |  |  |  |  |  |  | 
6 | COc1ccc(-c2noc(C)c2C(=O)N2CCN(c3ccc([N+](=O)[O-])cc3Cl)CC2)c(Cl)c1 [Example 31] |  |  | > 10 | < 1 | < 1 | < 0.1 | < 0.1 | < 1 | 
7 | COc1ncccc1-c1noc(C)c1C(=O)N1CCN(c2ccc([N+](=O)[O-])cc2Cl)CC1 [Example 45] | 56 | 33 |  |  |  |  |  |  | 
8 | Cc1onc(-c2cccnc2Cl)c1C(=O)N1CCN(c2ccc([N+](=O)[O-])cc2Cl)CC1 [Example 61] | 50 | 18 | > 10 | < 1 | < 1 | < 0.1 | < 1 | < 10 | 
9 | COc1ccc2ccccc2c1-c1noc(C)c1C(=O)N1CCN(c2ccc([N+](=O)[O-])cc2Cl)CC1 [Example 63] |  |  | > 10 | < 1 | < 1 | < 0.1 | < 0.1 | < 1 | 
10 | Cc1[nH]nc(-c2ccccc2Cl)c1C(=O)N1CCN(c2ccc([N+](=O)[O-])cc2Cl)CC1 [Example 72] | 78 | 61 | > 10 | < 10 | < 10 | < 1 | < 1 | > 10 | 
11 | Cc1c[nH]c(-c2ccccc2Cl)c1C(=O)N1CCN(c2ccc([N+](=O)[O-])cc2Cl)CC1 [Example 75, (4-(2-chloro-4-nitrophenyl)piperazin-1-yl)(2-(2-chlorophenyl)-4-methyl-1H-pyrrol-3-yl)methanone] |  |  |  |  |  |  |  |  | EC50 (A/H3N2 Brisbane; [4]): > 10 µM; EC50 (A/H5N1/Duck_MN; [5]): < 1 µM; EC50 (A/H5N1/Duck_PA; [5]): < 1 µM; EC50 (A/H1N1/WSN; Influenza A virus): < 0.1 µM; EC50 (A/H5N1/Gull_PA; [5]): < 0.1 µM; EC50 (A/H1N1/Solomon Islands; [6]): < 10 µM
12 | Cc1cnn(-c2ccccc2Cl)c1C(=O)N1CCN(c2ccc([N+](=O)[O-])cc2Cl)CC1 [Example 77] |  |  | > 10 | < 10 | < 10 | < 1 | < 1 | > 10 | 
13 | COc1ccccc1-c1n[nH]c(C)c1C(=O)N1CCN(c2ccc([N+](=O)[O-])cc2Cl)CC1 [Example 80] | 72 | 65 | > 10 | < 10 | < 10 | < 10 | < 1 | < 10 | 
14 | COc1ccccc1-c1nnn(C)c1C(=O)N1CCN(c2ccc([N+](=O)[O-])cc2Cl)CC1 [Example 81] | 73 | 45 | > 10 | < 1 | < 1 | < 0.1 | < 0.1 | < 10 | 
15 | COc1ccccc1-c1ncn(C)c1C(=O)N1CCN(c2ccc([N+](=O)[O-])cc2Cl)CC1 [Example 82] | 45 | 43 | > 10 | < 10 | < 10 | < 1 | < 1 | > 10 | 
16 | COc1ccccc1-c1n[nH]c(C)c1C(=O)N1CCN(c2ncc([N+](=O)[O-])cc2Cl)CC1 [Example 83] | 52 | 16 |  |  |  |  |  |  | 
17 | COc1ccccc1-c1nnn(C)c1C(=O)N1CCN(c2ncc([N+](=O)[O-])cc2Cl)CC1 [Example 86] |  |  | > 10 | < 10 | < 10 | < 1 | < 1 | < 10 | 
18 | Cc1nnn(-c2ccccc2Cl)c1C(=O)N1CCN(c2ccc([N+](=O)[O-])cc2Cl)CC1 [Example 88] | 47 | 23 | > 10 | < 10 | < 10 | < 1 | < 1 | < 10 | 
19 | COc1ccccc1-c1noc(C)c1C(=O)N1CCN(c2ncc(Cl)cc2Br)CC1 [Example 129] |  |  | < 10 | < 10 | < 10 | < 1 | < 1 | < 10 | 
20 | Cc1cc(Br)cnc1N1CCN(C(=O)c2c(-c3ccccc3Cl)noc2C)CC1 [Example 132, (4-(5-bromo-3-methylpyridin-2-yl)piperazin-1-yl)(3-(2-chlorophenyl)-5-methylisoxazol-4-yl)methanone] |  |  |  |  |  |  |  |  | EC50 (A/H3N2 Brisbane; [4]): > 10 µM; EC50 (A/H5N1/Duck_MN; [5]): > 10 µM; EC50 (A/H5N1/Duck_PA; [5]): > 10 µM; EC50 (A/H1N1/WSN; Influenza A virus): < 1 µM; EC50 (A/H5N1/Gull_PA; [5]): > 10 µM; EC50 (A/H1N1/Solomon Islands; [6]): < 10 µM
21 | Cc1c[nH]c(-c2ccccc2Cl)c1C(=O)N1CCN(c2ncc(Cl)cc2Cl)CC1 [Example 133] |  |  | < 10 | > 10 | > 10 | < 1 | < 10 | < 10 | 
22 | Cc1onc(-c2ccccc2O)c1C(=O)N1CCN(c2ncc(Cl)cc2Cl)CC1 [Example 142, (4-(3,5-dichloropyridin-2-yl)piperazin-1-yl)(3-(2-hydroxyphenyl)-5-methylisoxazol-4-yl)methanone] | 80 | 34 |  |  |  |  |  |  | 
23 | Cc1onc(-c2ccccc2C(N)=O)c1C(=O)N1CCN(c2ccc([N+](=O)[O-])cc2Cl)CC1 [Example 155, 2-(4-(4-(2-chloro-4-nitrophenyl)piperazine-1-carbonyl)-5-methylisoxazol-3-yl)benzamide] | 80 | 61 |  |  |  |  |  |  | 
24 | COc1ccc(N)cc1-c1noc(C)c1C(=O)N1CCN(c2ncc(Cl)cc2Cl)CC1 [Example 159, (3-(5-amino-2-methoxyphenyl)-5-methylisoxazol-4-yl)(4-(3,5-dichloropyridin-2-yl)piperazin-1-yl)methanone] | 62 | 36 |  |  |  |  |  |  | 
25 | COc1ccc(NS(C)(=O)=O)cc1-c1noc(C)c1C(=O)N1CCN(c2ncc(Cl)cc2Cl)CC1 [Example 161, N-(3-(4-(4-(3,5-dichloropyridin-2-yl)piperazine-1-carbonyl)-5-methylisoxazol-3-yl)-4-methoxyphenyl)methanesulfonamide] | 70 | 8 |  |  |  |  |  |  | 
26 | COc1ccc(NS(C)(=O)=O)cc1-c1noc(C)c1C(=O)N1CCN(c2ccc([N+](=O)[O-])cc2Cl)CC1 [Example 163] | 75 | 49 |  |  |  |  |  |  | 
27 | COc1ccc(NC(C)=O)cc1-c1noc(C)c1C(=O)N1CCN(c2ccc([N+](=O)[O-])cc2Cl)CC1 [Example 165] |  |  | > 10 | < 10 | < 10 | < 1 | < 1 | < 1 | 
28 | Cc1onc(-c2ccccc2)c1C(=O)N1CCN(c2ccc([N+](=O)[O-])cc2Cl)CC1 [reference compound] | 40 | 20 |  |  |  |  |  |  | 
29 | Cc1onc(-c2ccccc2Cl)c1C(=O)N1CCN(c2ccc([N+](=O)[O-])cc2Cl)CC1 [reference compound] | 6 | 0 |  |  |  |  |  |  | 
